From patent publication US20210024545A1, “SUBSTITUTED DIAZAHETERO-BICYCLIC COMPOUNDS AND THEIR USE” (Bayer Aktiengesellschaft, priority 2016, published 2021)

Legend:
[1] = biological target: human TASK-3 (Homo sapiens, UniProt Q9NPC2); experiment: Inhibition of recombinant TASK-3 in stably transfected CHO cells, KCl-induced depolarization, voltage-sensitive dye (B-2); assay type: cell-based; parameters: expressed in transfected cells; host or cells: stably transfected CHO cells; settings: depolarization induced by 40 mM potassium chloride, some mean values from multiple determinations
In short: (§1)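 Stably transfected CHO cells loaded with a voltage-sensitive membrane potential dye. Depolarization was induced with 40 mM KCl, and compound inhibition of it was read by fluorescence. IC50 is the concentration blocking half of the KCl-induced depolarization; some values are means of multiple independent determinations.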

[2] = biological target: human TASK-1 (Homo sapiens, UniProt O14649); experiment: Inhibition of recombinant TASK-1 in stably transfected CHO cells, KCl-induced depolarization, voltage-sensitive dye (B-2); assay type: cell-based; parameters: expressed in transfected cells; host or cells: stably transfected CHO cells; settings: depolarization induced by 40 mM potassium chloride, some mean values from multiple determinations
In short: as §1

human TASK-1, sequence (O14649 whole entry): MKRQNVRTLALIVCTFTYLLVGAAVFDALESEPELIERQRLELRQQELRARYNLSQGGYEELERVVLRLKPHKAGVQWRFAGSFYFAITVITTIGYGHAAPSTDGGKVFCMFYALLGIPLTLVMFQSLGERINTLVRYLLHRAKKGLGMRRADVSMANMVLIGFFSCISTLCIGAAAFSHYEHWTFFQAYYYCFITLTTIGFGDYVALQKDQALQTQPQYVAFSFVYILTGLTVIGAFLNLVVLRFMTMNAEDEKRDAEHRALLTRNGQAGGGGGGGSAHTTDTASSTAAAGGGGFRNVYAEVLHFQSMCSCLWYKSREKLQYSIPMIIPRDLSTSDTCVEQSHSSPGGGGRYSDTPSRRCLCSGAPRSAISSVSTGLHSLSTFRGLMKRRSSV
human TASK-3, sequence (Q9NPC2 whole entry): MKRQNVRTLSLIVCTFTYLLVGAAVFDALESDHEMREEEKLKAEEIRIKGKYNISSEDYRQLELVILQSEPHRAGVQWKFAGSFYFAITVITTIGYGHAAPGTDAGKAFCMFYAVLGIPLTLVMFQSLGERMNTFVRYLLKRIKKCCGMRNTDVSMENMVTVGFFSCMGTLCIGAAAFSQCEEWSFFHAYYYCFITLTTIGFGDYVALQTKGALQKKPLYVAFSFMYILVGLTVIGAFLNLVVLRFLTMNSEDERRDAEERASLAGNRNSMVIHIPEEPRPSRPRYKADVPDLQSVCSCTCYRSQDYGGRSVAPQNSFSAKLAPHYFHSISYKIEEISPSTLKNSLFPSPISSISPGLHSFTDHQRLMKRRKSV

With `CC(C)N(C(=O)N1C2CCC1CN(Cc1c(-c3ccc(Cl)cc3)nc3ccccn13)C2)c1ccc(Cl)cc1` [Example 182, N-(4-Chlorophenyl)-3-{[2-(4-chlorophenyl)imidazo[1,2-a]pyridin-3-yl]methyl}-N-isopropyl-3,8-diazabicyclo[3.2.1]octane-8-carboxamide] the IC50 [1] was 1000 nM and the IC50 [2] was 6100 nM.
For `O=C(N1CCSCC1)N1C2CCC1CN(Cc1c(-c3ccc(Cl)cc3)nc3ccccn13)C2` [Example 183, (3-{[2-(4-Chlorophenyl)imidazo[1,2-a]pyridin-3-yl]methyl}-3,8-diazabicyclo[3.2.1]oct-8-yl)(thiomorpholin-4-yl)methanone], the IC50 [1] was 26 nM and the IC50 [2] was 450 nM.
`COC(=O)N1C2CCC1CN(Cc1c(-c3ccc(Cl)cc3)nc3ccccn13)C2` [Example 184, Methyl 3-{[2-(4-chlorophenyl)imidazo[1,2-a]pyridin-3-yl]methyl}-3,8-diazabicyclo[3.2.1]octane-8-carboxylate] gave an IC50 [1] of 72 nM and an IC50 [2] of 2900 nM.
`O=C(OC1CCCC1)N1C2CCC1CN(Cc1c(-c3ccc(Cl)cc3)nc3ccccn13)C2` [Example 186, Cyclopentyl 3-{[2-(4-chlorophenyl)imidazo[1,2-a]pyridin-3-yl]methyl}-3,8-diazabicyclo[3.2.1]octane-8-carboxylate] gave an IC50 [1] of 44 nM and an IC50 [2] of 730 nM.
Work on `O=C(OC1CCCCC1)N1C2CCC1CN(Cc1c(-c3ccc(Cl)cc3)nc3ccccn13)C2` [Example 187, Cyclohexyl 3-{[2-(4-chlorophenyl)imidazo[1,2-a]pyridin-3-yl]methyl}-3,8-diazabicyclo[3.2.1]octane-8-carboxylate] yielded an IC50 [1] of 200 nM and an IC50 [2] of 3800 nM.
`CCN(CC)C(=O)N1C2COCC1CN(Cc1c(-c3ccc(Cl)cc3)nc3ccccn13)C2` [Example 188, 7-{[2-(4-Chlorophenyl)imidazo[1,2-a]pyridin-3-yl]methyl}-N,N-diethyl-3-oxa-7,9-diazabicyclo[3.3.1]nonane-9-carboxamide] was tested, and the IC50 [1] was 5.9 nM and the IC50 [2] was 60 nM.
In the case of `O=C(N1CCOCC1)N1C2COCC1CN(Cc1c(-c3ccc(Cl)cc3)nc3ccccn13)C2` [Example 189, (7-{[2-(4-Chlorophenyl)imidazo[1,2-a]pyridin-3-yl]methyl}-3-oxa-7,9-diazabicyclo[3.3.1]non-9-yl)(morpholin-4-yl)methanone], the IC50 [1] is reported as 520 nM and the IC50 [2] is reported as 8300 nM.
With `CC(C)N(C(=O)N1C2COCC1CN(Cc1c(-c3ccc(Cl)cc3)nc3ccccn13)C2)C(C)C` [Example 190, 7-{[2-(4-Chlorophenyl)imidazo[1,2-a]pyridin-3-yl]methyl}-N,N-diisopropyl-3-oxa-7,9-diazabicyclo[3.3.1]nonane-9-carboxamide] the IC50 [1] was 19 nM and the IC50 [2] was 170 nM.
Molecule `CCN(C(=O)N1C2COCC1CN(Cc1c(-c3ccc(Cl)cc3)nc3ccccn13)C2)C1CCCCC1` [Example 191, 7-{[2-(4-Chlorophenyl)imidazo[1,2-a]pyridin-3-yl]methyl}-N-cyclohexyl-N-ethyl-3-oxa-7,9-diazabicyclo[3.3.1]nonane-9-carboxamide] has an IC50 [1] of 190 nM and an IC50 [2] of 9500 nM.
Work on `O=C(N1CCCC1)N1C2COCC1CN(Cc1c(-c3ccc(Cl)cc3)nc3ccccn13)C2` [Example 192, (7-{[2-(4-Chlorophenyl)imidazo[1,2-a]pyridin-3-yl]methyl}-3-oxa-7,9-diazabicyclo[3.3.l]non-9-yl)(pyrrolidin-1-yl)methanone] yielded an IC50 [1] of 73 nM and an IC50 [2] of 870 nM.
Work on `CCN(C(=O)N1C2COCC1CN(Cc1c(-c3ccc(Cl)cc3)nc3ccccn13)C2)c1ccccc1` [Example 193, 7-{[2-(4-Chlorophenyl)imidazo[1,2-a]pyridin-3-yl]methyl}-N-ethyl-N-phenyl-3-oxa-7,9-diazabicyclo[3.3.1]nonane-9-carboxamide] yielded an IC50 [1] of 100 nM and an IC50 [2] of 7100 nM.
`CC(C)N(C)C(=O)N1C2COCC1CN(Cc1c(-c3ccc(Cl)cc3)nc3ccccn13)C2` [Example 194, 7-{[2-(4-Chlorophenyl)imidazo[1,2-a]pyridin-3-yl]methyl}-N-isopropyl-N-methyl-3-oxa-7,9-diazabicyclo[3.3.1]nonane-9-carboxamide] gave an IC50 [1] of 290 nM and an IC50 [2] of 3000 nM.
